Measured values published in PubChem BioAssay (NCI).
Several values for one entry are separate records, joined by “and”; a condition that tells them apart may be missing. Equal values may be shown once.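 Interpolation was linear, between the two tested concentrations surrounding the appropriate level; five concentrations were tested over 48 hours in 96-well plates. Here, GI50 denotes the concentration required for 50% inhibition of growth. TGI denotes the concentration required for complete inhibition of growth.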

Assays:
Assay in all cases: inhibition of tumour cell growth, NCI panel, 48 h
[1] = tested on: A498 renal
[2] = tested on: CAKI-1 renal
[3] = tested on: DLD-1 colon
[4] = tested on: DMS 273 small cell lung
[5] = tested on: HL-60(TB) leukemia
[6] = tested on: MDA-MB-231 breast
[7] = tested on: NCI-H23 lung
[8] = tested on: OVCAR-5 ovarian
[9] = tested on: SN12C renal
[10] = tested on: SW-620 colon

| SMILES | GI50 [1] | TGI [1] | TGI [2] | TGI [3] | GI50 [4] | TGI [4] | TGI [5] | TGI [6] | GI50 [7] | TGI [7] | TGI [8] | GI50 [9] | TGI [9] | GI50 [10] | TGI [10] |
| --- | --- | --- | --- | --- | --- | --- | --- | --- | --- | --- | --- | --- | --- | --- | --- |
| O=C1C(Br)=C(Br)C(=O)c2ccccc21 | 48.5 µM and 13.4 µM | > 100 µM and 27.1 µM | 13.7 µM | 35.2 µM and 67.5 µM | 49.9 µM and 9.23 µM | > 100 µM and 23.5 µM | 15.6 µM | 11.6 µM | 17.2 µM and 6.6 µM | 33.5 µM and 17.6 µM | 41.7 µM and 22.9 µM | 16.4 µM and 5.09 µM | 30.2 µM and 17.1 µM | 16 µM and 2.28 µM | 29.5 µM and 8.64 µM |
| O=C1/C(=C/c2ccc(Cl)c(Cl)c2)CNC/C1=C\c1ccc(Cl)c(Cl)c1 |  | 32.2 µM | 24.3 µM | 3.84 µM |  | 19.2 µM | > 64.2 µM | 8.7 µM |  | 26.9 µM | 37.4 µM |  | 12.9 µM |  | 11.9 µM |
| Nc1c(C(=O)NC23CC4CC(CC(C4)C2)C3)[n+]([O-])c2ccccc2[n+]1[O-] |  | > 100 µM | > 100 µM | > 100 µM |  | > 100 µM | > 100 µM |  |  | > 100 µM | > 100 µM |  | > 100 µM |  | > 100 µM |
| O=C1c2cccc3c(Cl)ccc(c23)C(=O)N1CCCN1CCN(CCCN2C(=O)c3cccc4c(Cl)ccc(c34)C2=O)CC1 |  | > 100 µM | > 100 µM | > 100 µM |  | > 100 µM | > 100 µM |  |  | > 100 µM | > 100 µM |  | > 100 µM |  | > 100 µM |
| COC1C(CO)OC(n2c3c(Cl)cccc3c3c4c(c5c6cccc(Cl)c6[nH]c5c32)C(=O)NC4=O)C(O)C1O (stereo unspecified) |  | 0.688 µM | 0.565 µM | > 100 µM |  | 1.3 µM |  | > 54.7 µM |  | 2.72 µM | > 41.9 µM |  | > 29.2 µM |  | > 100 µM |
| OCC(O)COc1c(Cl)cc(Cl)cc1Cl (stereo unspecified) |  | > 100 µM | > 100 µM | > 100 µM |  | > 100 µM | > 100 µM |  |  | > 100 µM | > 100 µM |  | > 100 µM |  | > 51.9 µM |
| Cc1cccc(C(C)C)c1NC(=O)CCl |  | > 100 µM | 91.7 µM | > 100 µM |  | > 100 µM | > 100 µM |  |  | 80 µM | > 100 µM |  | > 100 µM |  | > 100 µM |
| C=C1CCC2C(C)(CO)C(O)CCC2(C)C1C/C=C1/CCOC1=O (stereo unspecified) |  | > 100 µM | > 100 µM | > 100 µM |  | > 100 µM | > 100 µM |  |  | > 100 µM | > 100 µM |  | > 100 µM |  | > 100 µM |
| CC(C)CN1CC(C)C(=O)NC1=O (stereo unspecified) |  | > 100 µM | > 100 µM | > 100 µM |  | > 100 µM | > 100 µM |  |  | > 100 µM | > 100 µM |  | > 100 µM |  | > 100 µM |
| CCC(C)c1cccc(C)c1NC(=O)C(=O)Cc1nc2ccccc2s1 (stereo unspecified) |  | > 100 µM | > 100 µM | > 100 µM |  | > 100 µM | > 100 µM |  |  | > 100 µM | > 100 µM |  | > 100 µM |  | > 100 µM |
| Cc1ccc(/C=C/C(=O)c2ccc([N+](=O)[O-])cc2)cc1 |  | 19.1 µM | > 100 µM | > 100 µM |  | > 100 µM | > 100 µM |  |  | 99.8 µM | > 100 µM |  | > 100 µM |  | > 100 µM |
